One substance from article PMC6838142, “Nano-Antagonist Alleviates Inflammation and Allows for MRI of Atherosclerosis” (Nanotheranostics, 2019) can be followed below.

For one series, the system named is RAW-Blue cells. Description: Nanoparticle cell-surface binding/uptake in RAW-Blue cells (rhodamine fluorescence). In kind it is cell-based, mouse. As to conditions: 1 and 10 µM nanoparticles with 1% rhodamine; 550/620 nm. As for the experimental part:
(§1) A schematic representation of nanoparticle screening is depicted in Supplementary Figure S4. Briefly, RAW-Blue NFkB reporter cells were cultured as per the manufacturer's recommendations. Cells were seeded and cultured overnight in black opaque 96-well plates with a clear bottom at 50,000 per well. Cells were then treated with 1 and 10 µM of nanoparticles containing 1% rhodamine and positive and negative controls (see below) for 30 min on ice followed by washing steps with cold PBS. Next, lipopolysaccharide (LPS) was added at 100 ng/mL and incubated for 6 h at 37 °C, following which the cells were washed again and incubated for 18 h at 37 °C in fresh medium. Next, 20 µL of supernatant was collected and assayed using SEAP detection reagent in a separate clear bottom 96-well plate as per Invivogen instructions (http://www.invivogen.com). Absorbance at OD 650 nm was recorded and was indicative of NFkB activation. In parallel, cells in the opaque plate were washed again and fluorescence was read at 550 nm excitation and 620 nm emission. This signal from rhodamine was indicative of nanoparticle uptake. […] All analysis was performed using Molecular Devices i3 multi-mode plate reader and SoftMax Pro software version 6.2 (Molecular Devices).

A further series relates to IL-1β. Description: IL-1β release, AlphaLISA. Type of series: cell-based, mouse. To be noted: inflammasome experiment supernatants, 4 experiments. As for the experimental part: (§2) Cytokines were analyzed by EVE Technologies (https://www.evetechnologies.com) using the Luminex 31-Plex kit. Cell culture supernatants were diluted twice with PBS and provided in biological triplicates to EVE Technologies via overnight shipment in dry ice. Individual IL-1β and TNFɑ assays were performed using Perkin Elmer AlphaLISA kits, as per Supplementary Table S1 and vendor instructions.
(§3) BMDMs or J774 cells were plated in 48-well plates at 2 x 10^5 per well. Next day, the medium was changed to Opti-MEM (100 μL per well) without serum and the cells were allowed to equilibrate for 3 h. Next, the cells were pretreated with the indicated concentrations of nanoparticles or controls for 3 h followed by the addition of LPS to some wells to the final LPS concentration of 50 ng/mL. LPS priming continued for another 2 h, following which DMSO (vehicle), Nigericin (5 μM) or adenosine triphosphate (ATP) (1 mM) were added to some wells. Cells were incubated for an additional 30 min and cell culture supernatants were collected on ice. Cells were washed with cold PBS once and lysed/processed as described in immunoblotting section. The supernatants (90 μL) were mixed with 10 μL of 10x SDS loading buffer (10% SDS, 10% Ficoll 400, 0.5 M Tris pH 6.8, 0.5 M DTT, and 0.001% bromophenol blue) and heat-denatured as described in the immunoblotting section. […]

Series [1] has as its system F4/80-positive plaque macrophages. Description: Immunohistochemistry / plaque macrophage co-staining. In kind it is in vivo, mouse. As to conditions: mouse, in vivo. The protocol:
Twenty-four hours after nanoparticle injection (see above), mice were euthanized and abdominal aortas were isolated and embedded in Optimal Cutting Temperature compound. After cryotome-sectioning, resulting in 20-30 slides per mouse, 15 slides were sent to Ohio State laser capture microdissection core lab for capture and analysis. The rest of the slides were processed as follows: after fixation in methanol:acetone 50:50 at -20 °C, slides were hydrated in PBS, blocked for 30 min in fish serum (Aqua Block) and stained for 1 h with primary antibodies against F4/80 followed washing and staining with HRP-conjugated secondary antibody for 30 min. DAB peroxidase kit was then used as per manufacturer's instructions followed by mounting. DAB and antibody staining (but not wash steps) was omitted in slides designated for nanoparticle fluorescence visualization. Nanoparticles fluorescence was visualized with Zeiss 510 LSM-meta confocal microscope and 20x objective. DAB F4/80 staining was visualized with Nikon FN1 microscope and same power objective.

Series [2] relates to bone marrow derived monocytes, CCL2-induced migration. Description: CCL2-induced chemotaxis assay. Type of series: cell-based, mouse. The arrangement: cell velocity / distance traveled / chemotactic index: dose or concentration left out as unconfirmed. The protocol:
Chemotaxis assays were performed using IBIDI µ-Slides as per the manufacturer's instructions and the recently published guide detailing the protocol. […] Cells were allowed to attach for 3 h at 37 °C, washed with 0.2 mL warm cell culture medium using a pipette tip inserted into µ-channel port, following which 100 nM recombinant mouse CCL2 protein was added as a chemoattractant (or omitted in control slides) to the one of side reservoirs. Cell movement was recorded for a duration of 12 h via phase video-microscopy in a stage-top humidified incubator at 37 °C and 5% CO2 atmosphere. Analysis was performed using the ImageJ IBIDI tracking tool, available free of charge at https://ibidi.com.

Series [3] deals with BMDMs. Description: GSH/GSSG assay in LPS-primed BMDMs. In kind it is cell-based, mouse. To be noted: LPS-primed (100 ng/mL) BMDMs, 5 µM CCTV vs vehicle, 8 experiments.
Series [4] deals with cytokines in cell culture supernatants. As to the kind of experiment: Cytokine analysis, Luminex panel. Type of series: cell-based, mouse. The protocol:
as §2

The subject of a further series is NF-kB. Description: Nanoparticle screening: NFkB activation in RAW-Blue reporter cells. In kind it is cell-based, mouse. The protocol: as §1
Series [5] concerns NLRP3 inflammasome (J774 cells). As to the kind of experiment: Inflammasome activation immunoblot in J774 cells. In kind it is cell-based, mouse. As to conditions: additional activator ATP 1 mM. The protocol:
BMDMs or J774 cells were plated in 48-well plates at 2 x 10^5 per well. Next day, the medium was changed to Opti-MEM (100 μL per well) without serum and the cells were allowed to equilibrate for 3 h. Next, the cells were pretreated with the indicated concentrations of nanoparticles or controls for 3 h followed by the addition of LPS to some wells to the final LPS concentration of 50 ng/mL. LPS priming continued for another 2 h, following which DMSO (vehicle), Nigericin (5 μM) or adenosine triphosphate (ATP) (1 mM) were added to some wells. Cells were incubated for an additional 30 min and cell culture supernatants were collected on ice. Cells were washed with cold PBS once and lysed/processed as described in immunoblotting section. The supernatants (90 μL) were mixed with 10 μL of 10x SDS loading buffer (10% SDS, 10% Ficoll 400, 0.5 M Tris pH 6.8, 0.5 M DTT, and 0.001% bromophenol blue) and heat-denatured as described in the immunoblotting section. Supernatants were loaded at 45 μL per lane on Bio Rad TGX Criterion 12+2 gels (4-20%) and lysates were loaded at 15 μg per lane. Immunoblotting was performed as described above.
Supplementary Figure S10. Inflammasome activation assays in J774 cells. The cells were treated as described in Methods and main text Figure 5 legend, plus additional inflammasome activator ATP that was added at 1 mM. Immunoblot was performed as described in methods. […]

Another series concerns TNFɑ. As to the kind of experiment: TNFɑ release, AlphaLISA. As to conditions: inflammasome experiment supernatants, 4 experiments. In kind it is cell-based, mouse. The protocol: as §2, §3
For series [6], the system named is BMDMs. As to the kind of experiment: DCFDA ROS assay. In kind it is cell-based, mouse. As to conditions: LPS (100 ng/mL) BMDMs, 12 experiments. The protocol: GSH /GSSG, lactate dehydrogenase (LDH) and DCFDA assays were performed according to the manufacturer's instructions. The assays were purchased from vendors as indicated in Supplemental Table S1.

Entries after “also recorded” stand apart in the source; their conditions may differ.

As for CCTV, the cell-surface binding result with RAW-Blue cells is “high cell-surface binding”. Further, the IL-1β release entry with IL-1β is listed as “confirmed the actions of CCTV”. For the same substance, in series [1], the “co-staining with F4/80 in plaque” value was “co-stained with CCTV”. For the same substance, in series [2] (CCL2-induced chemotaxis), the cell velocity entry is “statistically significant inhibition”, the chemotactic index entry is given as “statistically significant inhibition” and the distance traveled result was “statistically significant inhibition”. The CCL2-induced monocyte migration entry in [2] (pre-treated BMDMs, 100 nM recombinant mouse CCL2, 12 h, nanoparticles) is “potently inhibited CCL2-induced monocyte migration in an antagonistic manner”. Besides, in the series on BMDMs [3], the GSH levels result is “unable to restore GSH levels; also recorded: unaffected” and the GSSG levels entry was “unable to restore GSH levels or reduce GSSG; also recorded: unaffected”. In addition, the “levels of 14 cytokines in supernatants” value in series [4] (Luminex inflammation array) was “did not detect significant differences among 14 different cytokines”. Also, in series [4] (not statistically significant), the IL-6 cytokine result is recorded as “trend in CCTV-induced downregulation” and the IL-12p40 cytokine result is “though to a lesser extent”. For the same substance, the “NF-kB activity compared with dexamethasone” value with NF-kB (10 µM nanoparticles vs Dex 1 mM, LPS 100 ng/mL) is given as “almost to the same level as that in cells treated with NF-kB inhibitor dexamethasone (Dex) at 1 mM”. In addition, the NF-kB activity result in the series on NF-kB (1 and 10 µM nanoparticles, 30 min on ice, LPS 100 ng/mL 6 h, SEAP OD 650 nm) is “significantly downregulated NF-kB activity”. Besides, in series [5], the “inflammasome deactivation in J774 cells” value was “reproducible in J774 cells”. Further, in the series on TNFɑ, the TNFɑ release entry is recorded as “completely unaffected”. Besides, the ROS production entry in the series on BMDMs [6] was “inhibited ROS production in response to LPS; also recorded: significantly blunted”.
